Source: article PMC8864858, “Synthesis, in vitro biological evaluation and molecular modelling of new 2-chloro-3-hydrazinopyrazine derivatives as potent acetylcholinesterase inhibitors on PC12 cells” (BMC Chemistry, 2022)
“Also recorded” adds a separate entry of the source.

Legend:
[1] = ABTS radical decolorization assay; type: physicochemical; details: final concentration 1–30 μM, absorbance at 734 nm
Procedure: (§1) The radical scavenging activity of prepared compounds was assessed through using ABTS decolorization assay and method reported by Re et al. with few modifications. In this regard, ABTS solution was diluted with 80% ethanol to the absorbance of 0.70 ± 0.05 at 734 nm. After adding 100 µL of the obtained compounds in ethanol (1–30 µM) or ascorbic acid, absorbance was measured at exactly 20 min in the same wavelength. DPPH assay was based on the method provided by Ghafouri et al. with some modifications. Additionally, the quenching of free radicals by novel synthesized compounds was evaluated spectrophotometrically (UV–Vis Pharmacia Biotech Ultrospec 3000) at 517 nm against the absorbance of DPPH radical. Further, ferric reducing/antioxidant power (FRAP) assay was performed according to the previous study with some modifications, the principle of which was based on reducing a ferric 2,4,6-tris(2-pyridyl)-1,3,5-triazine (Fe^3+-TPTZ) to ferrous in the presence of prepared compounds. Finally, a standard curve was drawn by considering the different concentrations (10–1000 µM) of ferrous sulfate.

[2] = DPPH radical scavenging assay; type: physicochemical; details: for Scavenging activity on DPPH radical (in words): Fig. 3B
Procedure: as §1

[3] = Ferric reducing/antioxidant power (FRAP) assay; type: physicochemical; details: for Antioxidant effect in FRAP (in words): Fig. 3C
Procedure: as §1

[4] = target: T1, AChE from Electrophorus electricus (Electrophorus electricus, UniProt O42275); assay: biochemical; details: Ellman method, compounds 0.1–10 µM, triplicate; read-out: IC50 against AChE activity
T1 construct: purchased Sigma
Procedure: The AChE inhibitory activity of all synthesized novel derivatives and their controls was evaluated through using the Ellman method. […] Each concentration was assayed in triplicate. […] Finally, absorbance was recorded by using a Pharmacia Biotech Ultrospec 3000 UV–Vis spectrophotometer at 410 nm.

[5] = system: Tau-p; assay: Western blot analysis of Tau-p in PC12 cells; type: cell-based, Rattus norvegicus; details: PC12 cells in presence of Ab1-42; CHP4 at 20 and 30 µM, 24 h
Procedure: (§2) To this end, the cells were seeded in the 6-well plate and treated with 20 and 30 µM CHP4 for 24 h. Additionally, they were washed with cold PBS, followed by lysing with lysis buffer (20 mM Tris (pH 7.5), 150 mM NaCl, 1 mM EDTA, 1% NP-40, 0.5% sodium deoxycholate, 0.1% SDS, 50 mM Tris, protease and phosphatase inhibitor cocktails) for 30 min on ice. After centrifuging lysates at 4 °C in 12,000g for 10 min, the supernatants were transferred to new tubes. Protein concentration was detected through using the Bradford assay. Further, the denatured proteins was resolved on SDS-PAGE, transferred onto PVDF membranes (Millipore, Billerica, MA, USA), and blocked with 5% nonfat dry milk in the PBS containing 0.1% Tween-20 (PBST). Then, the membranes were incubated with the rabbit primary antibodies against Tau-p, HSP70, and β-actin (as a control group) overnight at 4 °C, and exposed with the horseradish peroxidase (HRP)-conjugated second antibody for 2 h at room temperature. Finally, the density of relative protein bands was determined through densitometric scanning the blots by using Image-J program.

[6] = system: HSP70; assay: Western blot analysis of HSP70 in PC12 cells; type: cell-based, Rattus norvegicus; details: PC12 cells in presence of Ab1-42; CHP4 30 μM (b1)
Procedure: as §2

[7] = system: PC12 cells; assay: Ab1-42-induced cytotoxicity in PC12 cells, neuroprotection (MTT); type: cell-based; details: 100 µM Ab1-42, 24 h
Procedure: Rattus norvegicus pheochromocytoma PC12 cells (Pastor Institute, Iran) were cultured in the Dulbecco's Modified Eagle's Medium (DMEM) containing 10% fetal bovine serum (FBS) and 1% penicillin/streptomycin (Gibco) at 37 °C with 5% CO2. […] Furthermore, 50 µL of DMSO and 10 µL of 0.5 mg/mL MTT stock solution were added to each well containing about 1 mL of medium and the mixture was incubated for 4 h. Then, the plates were agitated on a plate shaker for 30 min and optical density was read at 570 nm by using an ELISA reader (Biotech).

[8] = system: PC12 cells; assay: Cell viability of PC12 cells treated with CHP4 (MTT); type: cell-based; details: concentrations of 0–100 μM; 24 and 48 h
Procedure: Rattus norvegicus pheochromocytoma PC12 cells (Pastor Institute, Iran) were cultured in the Dulbecco's Modified Eagle's Medium (DMEM) containing 10% fetal bovine serum (FBS) and 1% penicillin/streptomycin (Gibco) at 37 °C with 5% CO2. In order to examine the role of CHP4, PC12 cells were treated with the different concentrations (10–100 µM) of CHP4 for 24 and 48 h. […] Furthermore, […] 10 µL of 0.5 mg/mL MTT stock solution were added to each well containing about 1 mL of medium and the mixture was incubated for 4 h. Then, the plates were agitated on a plate shaker for 30 min and optical density was read at 570 nm by using an ELISA reader (Biotech).

T1 sequence (O42275 24-633): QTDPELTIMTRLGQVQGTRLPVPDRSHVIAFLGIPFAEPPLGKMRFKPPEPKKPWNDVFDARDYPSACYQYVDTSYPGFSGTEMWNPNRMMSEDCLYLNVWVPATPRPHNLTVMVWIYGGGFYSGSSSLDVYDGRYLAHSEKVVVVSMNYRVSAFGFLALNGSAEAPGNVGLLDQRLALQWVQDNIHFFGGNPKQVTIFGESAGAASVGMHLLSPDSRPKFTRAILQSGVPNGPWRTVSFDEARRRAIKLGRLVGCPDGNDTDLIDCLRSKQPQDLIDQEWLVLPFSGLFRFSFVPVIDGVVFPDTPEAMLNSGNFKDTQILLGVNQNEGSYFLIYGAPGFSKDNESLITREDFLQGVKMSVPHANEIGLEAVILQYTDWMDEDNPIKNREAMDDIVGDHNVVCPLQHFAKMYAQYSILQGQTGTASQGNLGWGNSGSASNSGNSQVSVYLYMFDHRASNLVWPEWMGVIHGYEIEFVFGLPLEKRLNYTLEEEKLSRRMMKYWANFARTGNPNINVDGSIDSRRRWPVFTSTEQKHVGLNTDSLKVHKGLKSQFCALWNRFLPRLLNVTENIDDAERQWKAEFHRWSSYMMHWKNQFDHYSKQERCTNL

| Compound | Scavenging activity on DPPH radical (in words) [2] | Antioxidant effect in FRAP (in words) [3] | IC50 [4] | also measured |
| --- | --- | --- | --- | --- |
| COc1ccc(/C=N/Nc2nccnc2Cl)cc1 [CHP1, (E)-2-chloro-3-(2-(4-methoxybenzylidene) hydrazinyl) pyrazine] | moderate | – | – | ABTS radical scavenging activity (inhibition) [1]: 48% |
| Cc1ccc2occ(/C=N/Nc3nccnc3Cl)c(=O)c2c1 [CHP2, (E)-3-((2-(3-chloropyrazin-2-yl)hydrazineylidene)methyl)-6-methyl-4H-chromen-4-one] | highest scavenging activity | – | – | IC50 ([2]; 517 nm): 26 µM |
| Oc1cccc(/C=N/Nc2nccnc2Cl)c1 [CHP3, (E)-3-((2-(3-chloropyrazin-2-yl)hydrazineylidene)methyl)phenol] | highest scavenging activity | – | – | – |
| Oc1ccccc1/C=N/Nc1nccnc1Cl [CHP4, (E)-2-((2-(3-chloropyrazin-2-yl)hydrazineylidene)methyl)phenol] | highest scavenging activity | highest | 3.76 µM | Ability for Fe3+ reduction (FRAP) ([3]; printed as 3.016 per 1 mM, concentration of Fe2+): 3.016; Tau-p expression (western blot) [5]: clearly decreased; HSP70 expression (western blot) [6]: significantly increased; also recorded: increased HSP70 expression; Effect on Ab1-42-induced cell death [7]: significantly reduced the Ab1-42-induced cell death in a dose-dependent manner; Toxicity in PC12 cells [8]: non-toxic |
| Clc1ccc(/C=N/Nc2nccnc2Cl)cc1 [CHP5, (E)-2-chloro-3-(2-(4-chlorobenzylidene)hydrazineyl)pyrazine] | low | least | 4.2 µM | – |
